{"source": "patent US20100168090A1", "about": "“Active Ingredient Combinations With Insecticidal and Acaricidal Properties” (BAYER CROPSCIENCE AG, priority 2006, published 2010)", "type_in_all_cases": "in vivo", "key": {"[1]": {"tested_on": "green peach aphid (Myzus persicae)", "test": "Myzus persicae test (cabbage leaves dipped)", "details": "single active compound; for Kill in % after 1 d: Table A 1", "text": "(§1) The expected action for a given combination of two active compounds can be calculated as follows, according to S. R. Colby, Weeds 15 (1967), 20-22:\n(§2) If • X is the kill rate, expressed as a percentage of the untreated control, when employing active compound A at an application rate of m g/ha or in a concentration of m ppm, • Y is the kill rate, expressed as a percentage of the untreated control, when employing active compound B at an application rate of n g/ha or in a concentration of n ppm and • E is the kill rate, expressed as a percentage of the untreated control, when employing active compounds A and B at application rates of m and n g/ha or in a concentration of m and n ppm, then\n(§3) If the actual kill rate exceeds the calculated value, the kill of the combination is superadditive, i.e. a synergistic effect is present. In this case, the actually observed kill rate must exceed the value calculated using the above formula for the expected kill rate (E).\n(§4) Solvent: 7 parts by weight of dimethylformamide Emulsifier: 2 parts by weight of alkylaryl polyglycol ether\n(§5) To produce a suitable preparation of active compound, 1 part by weight of active compound is mixed with the stated amounts of solvent and emulsifier, and the concentrate is diluted with emulsifier-containing water to the desired concentration.\nCabbage leaves (Brassica oleracea) which are heavily infested by the green peach aphid (Myzus persicae) are treated by being dipped into the active compound preparation of the desired concentration.\n(§6) After the desired period of time, the kill in % is determined. 100% means that all aphids have been killed; 0% means that none of the aphids have been killed. The kill rates determined are entered into Colby's formula."}, "[2]": {"tested_on": "larvae of the mustard beetle (Phaedon cochleariae)", "test": "Phaedon cochleariae larvae test (cabbage leaves dipped)", "details": "single active compound", "text": "as §1, §2, §3, §4\nTo produce a suitable preparation of active compound, 1 part by weight of active compound is mixed with the stated amounts of solvents and emulsifier, and the concentrate is diluted with emulsifier-containing water to the desired concentration.\nCabbage leaves (Brassica oleracea) are treated by being dipped in the active compound preparation of the desired concentration and are populated with larvae of the mustard beetle (Phaedon cochleariae) while the leaves are still moist.\nAfter the desired period of time, the kill in % is determined. 100% means that all beetle larvae have been killed; 0% means that none of the beetle larvae have been killed. The kill rates determined are entered into Colby's formula."}, "[3]": {"tested_on": "cotton aphid (Aphis gossypii)", "test": "Aphis gossypii test (cotton leaves dipped)", "details": "single active compound", "text": "as §1, §2, §3, §4, §5\nCotton leaves (Gossypium herbaceum) which are heavily infested by the cotton aphid (Aphis gossypii) are treated by being dipped into the active compound preparation of the desired concentration.\nas §6"}}, "data": [{"smiles": "C/C(=N\\C#N)N(C)Cc1ccc(Cl)nc1", "note": "[acetamiprid (II-e), acetamiprid]", "values": [{"measurement": "Kill in % after 6 d", "setting": "[1]; Table A 3, 0.16 ppm", "result": 10, "unit": "%"}]}, {"smiles": "CN/C(=N\\[N+](=O)[O-])NCc1cnc(Cl)s1", "note": "[clothianidin (IIm), clothianidin]", "values": [{"measurement": "Kill in % after 6 d", "setting": "[2]; 0.8 ppm", "result": 25, "unit": "%"}]}, {"smiles": "CO[C@H]1CC[C@]2(CC1)NC(=O)C(c1cc(C)ccc1C)=C2O", "note": "[compound (I-1)]", "values": [{"measurement": "Kill in % after 6 d", "setting": "[1]; Table A 2, 0.8 ppm", "result": 5, "unit": "%"}, {"measurement": "Kill in % after 6 d", "setting": "[2]; 20 ppm", "result": 10, "unit": "%"}]}, {"smiles": "COC1CCC2(CC1)NC(=O)C(c1cc(C)ccc1C)=C2O", "note": "(stereo not shown) [compound (I-1-a)]", "values": [{"measurement": "Kill in % after 6 d", "setting": "[1]; Table A 2, 0.8 ppm", "result": 0, "unit": "%"}, {"measurement": "Kill in % after 6 d", "setting": "[2]; 20 ppm", "result": 20, "unit": "%"}]}, {"smiles": "CCOC(=O)OC1=C(c2cc(C)ccc2C)C(=O)N[C@]12CC[C@@H](OC)CC2", "note": "[compound (I-2)]", "values": [{"measurement": "Kill in % after 1 d", "setting": "[3]; 20 ppm", "result": 5, "unit": "%"}, {"measurement": "Kill in % after 1 d", "setting": "[1]; 4 ppm", "result": 0, "unit": "%"}, {"measurement": "Kill in % after 6 d", "setting": "[1]; Table A 3, 4 ppm", "result": 80, "unit": "%"}, {"measurement": "Kill in % after 6 d", "setting": "[2]; 20 ppm", "result": 35, "unit": "%"}]}, {"smiles": "CCOC(=O)OC1=C(c2cc(C)ccc2C)C(=O)NC12CCC(OC)CC2", "note": "(stereo not shown) [compound (I-2-a)]", "values": [{"measurement": "Kill in % after 1 d", "setting": "[3]; 20 ppm", "result": 10, "unit": "%"}, {"measurement": "Kill in % after 1 d", "setting": "[1]; 4 ppm", "result": 0, "unit": "%"}, {"measurement": "Kill in % after 6 d", "setting": "[1]; Table A 3, 4 ppm", "result": 85, "unit": "%"}, {"measurement": "Kill in % after 6 d", "setting": "[2]; 20 ppm", "result": 10, "unit": "%"}]}, {"smiles": "CN/C(=N/CC1CCOC1)N[N+](=O)[O-]", "note": "(stereo not shown) [dinotefuran (II l), dinotefuran]", "values": [{"measurement": "Kill in % after 1 d", "setting": "[3]; 4 ppm", "result": 30, "unit": "%"}, {"measurement": "Kill in % after 6 d", "setting": "[1]; Table A 3, 0.16 ppm", "result": 0, "unit": "%"}]}, {"smiles": "O=[N+]([O-])NC1=NCCN1Cc1ccc(Cl)nc1", "note": "[imidacloprid (II-a), imidacloprid]", "values": [{"measurement": "Kill in % after 1 d", "setting": "[1]; 0.16 ppm", "result": 15, "unit": "%"}, {"measurement": "Kill in % after 6 d", "setting": "[1]; Table A 2, 0.032 ppm", "result": 5, "unit": "%"}, {"measurement": "Kill in % after 6 d", "setting": "[2]; 0.8 ppm", "result": 0, "unit": "%"}]}, {"smiles": "O=[N+]([O-])/N=C1\\NCCN1Cc1cnc(Cl)s1", "note": "[imidaclothiz (II n), imidaclothiz]", "values": [{"measurement": "Kill in % after 6 d", "setting": "[1]; Table A 3, 0.16 ppm", "result": 0, "unit": "%"}]}, {"smiles": "N#C/N=C1\\SCCN1Cc1ccc(Cl)nc1", "note": "[thiacloprid (IIk), thiacloprid]", "values": [{"measurement": "Kill in % after 6 d", "setting": "[2]; 0.8 ppm", "result": 0, "unit": "%"}]}, {"smiles": "CN1COCN(Cc2cnc(Cl)s2)/C1=N\\[N+](=O)[O-]", "note": "[thiamethoxam (IIg), thiamethoxam]", "values": [{"measurement": "Kill in % after 6 d", "setting": "[2]; 0.8 ppm", "result": 0, "unit": "%"}]}]}
